From the NIST ThermoML archive (doi:10.1016/j.fluid.2016.02.018)
Numbers after ± are expanded uncertainties.

Conditions: 293.2 K; 101.33 kPa; Liquid; Vibrating tube method

| SMILES | mass density |
| --- | --- |
| CC[n+]1ccc(C)cc1.O=S(=O)([N-]S(=O)(=O)C(F)(F)F)C(F)(F)F | 1489.9 ± 0.7 kg/m3 |
| CCn1cc[n+](C)c1.N#CN=C=[N-] [1-ethyl-3-methylimidazolium dicyanamide] | 1104.9 ± 1.1 kg/m3 |
